Measurements: PubChem BioAssay (NCI)
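Interpolation was linear, between the two tested concentrations surrounding the appropriate level; five concentrations were tested over 48 hours in 96-well plates. At the GI50, growth is halved. Definition used: TGI = concentration required for complete inhibition of growth.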

Experiments:
Assay in all cases: growth of human tumour cells (NCI), 48 h
DLD-1 colon = test system: DLD-1 colon
HOP-92 NSCLC = test system: HOP-92 NSCLC
IGROV1 ovarian = test system: IGROV1 ovarian
MALME-3M melanoma = test system: MALME-3M melanoma
OVCAR-4 ovarian = test system: OVCAR-4 ovarian
RPMI-8226 leukemia = test system: RPMI-8226 leukemia
SF-539 CNS = test system: SF-539 CNS
TK-10 renal = test system: TK-10 renal
EKVX NSCLC = test system: EKVX NSCLC
MDA-N = test system: MDA-N

Structure (SMILES)	GI50 (DLD-1 colon)	TGI (DLD-1 colon)	GI50 (HOP-92 NSCLC)	TGI (HOP-92 NSCLC)	GI50 (IGROV1 ovarian)	TGI (IGROV1 ovarian)	GI50 (MALME-3M melanoma)	TGI (MALME-3M melanoma)	GI50 (OVCAR-4 ovarian)	TGI (OVCAR-4 ovarian)	GI50 (RPMI-8226 leukemia)	TGI (RPMI-8226 leukemia)	GI50 (SF-539 CNS)	TGI (SF-539 CNS)	GI50 (TK-10 renal)	TGI (TK-10 renal)	TGI (EKVX NSCLC)	TGI (MDA-N)	GI50 (EKVX NSCLC)
N[C@@H]1CCCC[C@@H]1N.O=C([O-])CN(CP(=O)([O-])[O-])CP(=O)([O-])[O-].[Pt+2]	> 100 µM	> 100 µM	> 100 µM	> 100 µM	> 100 µM	> 100 µM	> 100 µM	> 100 µM	> 100 µM	> 100 µM	> 100 µM	> 100 µM	> 100 µM	> 100 µM	> 100 µM	> 100 µM	–	–	–
COC(=O)/C(=C/c1ccc(OC)cc1)NC(=O)c1ccccc1	–	> 100 µM	–	> 100 µM	–	> 100 µM	–	> 100 µM	–	> 100 µM	–	> 100 µM	–	> 100 µM	–	> 100 µM	> 100 µM	–	–
CC(=O)OC1CCC2(C)C(=CCC3C4CCC5(OC6CC(C)CN(C(C)=O)C6C5C)C(C)=C4C(=O)C32)C1 (stereo not drawn)	–	–	–	28.9 µM	–	29.1 µM	–	29.9 µM	–	61.4 µM	–	37.6 µM	–	39.9 µM	–	56.7 µM	27.5 µM	48.6 µM	–
O=[N+]([O-])/C=C\c1c[nH]c2ccc(OCc3ccccc3)cc12	–	–	–	19.4 µM	–	15.8 µM	–	25.9 µM	–	–	–	4.62 µM	–	22.6 µM	–	23.1 µM	29.3 µM	5.56 µM	–
CC(CN1CCN(CC(C)Nc2ccnc3cc(Cl)ccc23)CC1)Nc1ccnc2cc(Cl)ccc12 (stereo not drawn)	–	41.1 µM	1.59 µM	13.2 µM	9.37 µM	> 100 µM	–	26.5 µM	–	> 61.6 µM	–	> 20.1 µM	–	10.4 µM	–	49.2 µM	> 58.9 µM	–	–
COc1cc(NCC2COc3c(ccc(OC)c3OC)C2=O)c([N+](=O)[O-])cc1OC (stereo not drawn)	–	–	–	–	–	> 100 µM	–	–	–	> 100 µM	–	> 100 µM	–	> 100 µM	–	> 100 µM	> 100 µM	> 100 µM	–
Cc1cc(C)c2c(SCc3ccc(Cl)cc3Cl)nc(N)nc2n1	–	–	–	58.1 µM	–	> 100 µM	–	> 100 µM	–	> 100 µM	–	> 100 µM	–	–	–	47.5 µM	> 100 µM	> 100 µM	–
CC(O)C(O)C(O)C(/C=N\Nc1ccccc1)=N/Nc1ccccc1 (stereo not drawn)	–	–	–	36 µM	–	21.4 µM	–	43.5 µM	–	–	–	57.1 µM	–	28.3 µM	–	35.4 µM	27.6 µM	25.1 µM	–
O=C(O)/C(=C\c1ccccc1Cl)S(=O)(=O)c1ccccc1	–	> 100 µM	–	> 100 µM	–	> 100 µM	–	> 100 µM	–	> 100 µM	–	> 100 µM	–	> 100 µM	–	> 100 µM	–	–	–
BrC1=CC=C2NCCCCCCN=C3C=CC(Br)=CC=C3NCCCCCCN=C2C=C1	–	> 25.5 µM	–	> 25.5 µM	–	> 25.5 µM	–	> 25.5 µM	–	> 25.5 µM	–	> 25.5 µM	–	> 25.5 µM	–	> 25.5 µM	> 25.5 µM	–	–
CC1(C)CC(=O)C(=[N+]=[N-])C(=O)C1	–	> 100 µM	–	> 100 µM	–	> 100 µM	–	> 100 µM	–	> 100 µM	–	> 100 µM	–	> 100 µM	–	> 100 µM	> 100 µM	–	–
C1=C(c2ccccc2)SC=C(c2ccccc2)S1	–	–	–	> 100 µM	–	> 100 µM	–	> 100 µM	–	> 100 µM	–	> 100 µM	–	> 100 µM	–	> 100 µM	> 100 µM	36.5 µM	–
Cc1ccc(NC(=O)C2C(=O)N(c3ccc(C)c(C)c3)C(=O)/C2=N\NC(N)=S)cc1C (stereo not drawn)	–	> 100 µM	–	> 100 µM	–	> 100 µM	–	> 100 µM	–	–	–	> 100 µM	–	> 100 µM	–	> 100 µM	> 100 µM	–	–
CN1CCN(CCNc2ccc(CO)c3sc4ccccc4c(=O)c23)CC1	–	53.2 µM	–	13.2 µM	–	27.2 µM	–	12 µM	–	13.3 µM	–	23.4 µM	–	10.7 µM	–	20.1 µM	20.7 µM	–	7.48 µM
CC(O)(CNS(=O)(=O)c1ccccc1)c1ccccc1 (stereo not drawn)	–	–	–	> 100 µM	–	> 100 µM	–	> 100 µM	–	> 100 µM	–	> 100 µM	–	–	–	> 100 µM	> 100 µM	> 100 µM	–
Cc1cccc(C)c1NC(=O)CCC(=O)NC(N)=S	–	> 100 µM	–	> 100 µM	–	> 100 µM	–	> 100 µM	–	–	–	> 100 µM	–	> 100 µM	–	> 100 µM	> 100 µM	–	–
CCOc1ccc2ccc3cccnc3c2n1	–	–	–	> 100 µM	–	> 100 µM	–	> 100 µM	–	> 100 µM	–	62.5 µM	–	> 100 µM	–	> 100 µM	> 100 µM	> 100 µM	–
NC(Cc1ccnnc1)C(=O)O (stereo not drawn)	–	–	–	> 100 µM	–	> 100 µM	–	> 100 µM	–	> 100 µM	–	> 100 µM	–	> 100 µM	–	> 100 µM	> 100 µM	> 100 µM	–
COc1cc(Cl)c2c3c(c(C(=O)c4ccccc4)oc13)CCC2	–	> 100 µM	–	–	–	> 100 µM	–	–	–	> 100 µM	–	> 100 µM	–	> 100 µM	–	> 100 µM	> 100 µM	–	–
CCCCCC(O)(CCCCC)CCCCCCCCC1=C(O)c2[nH]c(=O)ccc2C(=O)C1=O	–	19.7 µM	–	28.1 µM	–	18.9 µM	–	13.9 µM	–	7.06 µM	–	25.3 µM	–	20.3 µM	–	–	28.8 µM	–	–
O=c1c2ccccc2nc(-c2ccccc2)n1O	–	–	–	> 100 µM	–	> 100 µM	–	> 100 µM	–	> 100 µM	–	> 100 µM	–	> 100 µM	–	> 100 µM	> 100 µM	> 100 µM	–
CCc1c(O)c2c(c(O)c1C(C)=O)C(=O)c1c(cc(O)c(C(=O)O)c1C(=O)O)C2=O	–	–	–	> 100 µM	–	> 100 µM	–	> 100 µM	–	> 100 µM	–	> 100 µM	–	> 100 µM	–	> 100 µM	> 100 µM	> 100 µM	–
CC1CCP(=O)(c2ccccc2)CC1 (stereo not drawn)	–	> 100 µM	–	–	–	> 100 µM	–	> 100 µM	–	> 100 µM	–	> 100 µM	–	> 100 µM	–	> 100 µM	> 100 µM	–	–
O=S(=O)(O)/C(=C\c1ccccc1)c1ccccc1 (tested in a mixture with another compound)	–	–	–	> 100 µM	–	> 100 µM	–	> 100 µM	–	> 100 µM	–	> 100 µM	–	> 100 µM	–	> 100 µM	> 100 µM	> 100 µM	–
